Patent US10208033B2, “β-carboline, dihydro-β-carboline and tetrahydro-β-carboline alkaloid derivatives and preparation methods same and use in aspects of preventing and treating plant viruses, fungicides and insecticides” (NANKAI UNIVERSITY, priority 2013, dated 2019)
Structures can show the parent of a compound that is named as a salt.

How the values were obtained:
[1] = test system: tobacco mosaic virus (TMV); experiment: Anti-TMV activity, overall statements on Table 1; assay type: in vivo, tobacco mosaic virus (host Nicotiana tabacum L.cv.Xanthi NN); conditions: 100 μg/mL versus ningnanmycin at 100 μg/mL
[2] = test system: Botrytis cinerea; experiment: Fungicidal (bactericidal) activity in vitro, PDA colony diameter; assay type: cell-based; conditions: 50 mg/kg
[3] = test system: Fusarium graminearumt; experiment: microbe, parasite or virus in culture; assay type: cell-based; conditions: for Bactericidal activity (%) Fusarium graminearumt: 50 mg/kg
[4] = test system: potato late blight; experiment: microbe, parasite or virus in culture; assay type: cell-based
[5] = test system: tobacco mosaic virus (TMV); experiment: Anti-TMV in vivo therapeutic effect; set-up: species or system tobacco mosaic virus (host Nicotiana tabacum L.cv.Xanthi NN)
[6] = test system: Colletotrichum orbiculare; experiment: Fungicidal (bactericidal) activity in vitro, PDA colony diameter; assay type: cell-based; conditions: 50 mg/kg
[7] = test system: Phytophthora capsici; experiment: as above; assay type: cell-based; conditions: 50 mg/kg
[8] = test system: Alternaria solani; experiment: as above; assay type: cell-based; conditions: 50 mg/kg
[9] = test system: mosquito larvae; experiment: whole plant or invertebrate; conditions: for activity against culex pipiens larvae (in words): at 5 mg/kg
In short: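 Compound dissolved in acetone (or other solvent) to a 1000 ppm stock and diluted in water to 5 ppm. Ten Culex pipiens pallens larvae at the start of the fourth instar, laboratory-reared, added per beaker; solvent-only aqueous control.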

[10] = test system: Rhizoctonia cereali; experiment: Fungicidal (bactericidal) activity in vitro, PDA colony diameter; assay type: cell-based; conditions: 50 mg/kg
[11] = test system: Fusarium fujikuroi; experiment: as above; assay type: cell-based; conditions: 50 mg/kg
[12] = test system: Cercospora arachidicola; experiment: as above; assay type: cell-based; conditions: 50 mg/kg
[13] = test system: cotton bollworms; experiment: whole plant or invertebrate; conditions: for Cotton bollworm Mortality (%): concentration 600 mg/kg
Procedure: Experimental method of cotton bollworms: feed and drug mixing method: measure 3 mL of prepared solution and add it to about 27 g of newly prepared feed, thereby obtaining needed concentration through dilution by 10 times.

[14] = test system: tobacco mosaic virus (TMV); experiment: Anti-TMV in vivo inactivation; set-up: species or system tobacco mosaic virus (host Nicotiana tabacum L.cv.Xanthi NN)
[15] = test system: Macrophoma kawatsukai; experiment: Fungicidal (bactericidal) activity in vitro, PDA colony diameter; assay type: cell-based; conditions: 50 mg/kg
[16] = test system: tobacco mosaic virus (TMV); experiment: Anti-TMV in vitro effect (half-leaf soaking); assay type: cell-based, tobacco mosaic virus (host Nicotiana tabacum L.cv.Xanthi NN)
[17] = test system: Bipolaria maydis; experiment: organism not typed; assay type: cell-based; conditions: for Bactericidal activity (%) Bipolaria maydis: 50 mg/kg
[18] = test system: armyworms; assay type: in vivo; conditions: concentration 600 mg/kg
[19] = test system: corn borers; experiment: whole plant or invertebrate; conditions: read-out: Corn borer Mortality (%)
[20] = test system: armyworms, cotton bollworms and corn borers; experiment: Insecticidal activity, overall statements on Table 3; assay type: in vivo; conditions: Table 3, 600 mg/kg
[21] = test system: Rhizoctonia solani; experiment: Fungicidal (bactericidal) activity in vitro, PDA colony diameter; assay type: cell-based; conditions: 50 mg/kg
[22] = test system: cucumber fusarium wilt; experiment: as above; assay type: cell-based; conditions: 50 mg/kg
[23] = test system: tobacco mosaic virus (TMV); experiment: Anti-TMV in vivo protective effect; set-up: species or system tobacco mosaic virus (host Nicotiana tabacum L.cv.Xanthi NN)
[24] = test system: Sclerotinia scleotiorum; experiment: Fungicidal (bactericidal) activity in vitro, PDA colony diameter; assay type: cell-based; conditions: 50 mg/kg
[25] = test system: 14 kinds of fungi; experiment: Bactericidal activity, overall statements on Table 2; assay type: cell-based; conditions: Table 2, 50 mg/kg
Excerpt: In vitro test method (Alternaria solani is taken for example. Alternatively, other fungi may be used): Inoculate Alternaria solani to PDA culture medium, culture it for 7 days, prepare […] bacteria plates from colony edge by a puncher, inoculate […] and drug-free PDA culture media, culture them for 4 days, measure colony diameter, compare with the control group and calculate the inhibition percentage of the drug.

[26] = test system: corn borers; conditions: concentration 600 mg/kg
[27] = Culex pipiens, 24 h, read-out: Mosquito larvae Mortality (%)

SMILES: CCOC(=O)[C@@H]1Cc2c([nH]c3ccccc23)[C@H](C)N1 [Ib-13, (1S, 3S)-1-methyl-2,3,4,9-tetrahydropyridino [3,4-b] indol-3-ethyl formate]
- anti-TMV activity compared with ningnanmycin [1]: equivalent to the activity of commercial variety ningnanmycin
- inhibition of growth at 50 mg/kg ([2]; Botrytis cinerea, 96 h): 68.2%
- inhibition of growth at 50 mg/kg ([3]; Fusarium, 96 h, read-out: Bactericidal activity (%) Fusarium graminearumt): 21.4%
- inhibition of growth at 50 mg/kg ([4]; Phytophthora infestans, 96 h, read-out: Bactericidal activity (%) potato late blight): 30%
- inhibition at 100 µg/mL ([5]; Tobacco mosaic virus, treatment dose 100 μg/mL, read-out: Relative inhibition rate (%) In vivo therapy): 17.5%
- inhibition at 500 µg/mL ([5]; Tobacco mosaic virus, treatment dose 500 μg/mL, read-out: Relative inhibition rate (%) In vivo therapy): 43.9%
- inhibition of growth at 50 mg/kg ([6]; Colletotrichum orbiculare, 96 h): 38.1%
- inhibition of growth at 50 mg/kg ([7]; Phytophthora capsici, 96 h): 60.6%
- inhibition of growth at 50 mg/kg ([8]; Alternaria solani, 96 h): 55.6%
- mortality at 5 mg/kg [9, 27]: 60%
- mortality at 10 mg/kg [9, 27]: 100%
- activity against culex pipiens larvae (in words) [9]: still show high activity
- inhibition of growth at 50 mg/kg ([10]; Rhizoctonia, 96 h): 59.4%
- inhibition of growth at 50 mg/kg ([11]; Fusarium fujikuroi, 96 h): 42.9%
- inhibition of growth at 50 mg/kg ([12]; Mycosphaerella arachidis, 96 h): 50%
- mortality at 600 mg/kg ([13]; Helicoverpa armigera, in Gossypium hirsutum, read-out: Cotton bollworm Mortality (%)): 30%
- inhibition at 100 µg/mL ([14]; Tobacco mosaic virus, treatment dose 100 μg/mL, read-out: Relative inhibition rate (%) In vivo inactivation): 25.7%
- inhibition at 500 µg/mL ([14]; Tobacco mosaic virus, treatment dose 500 μg/mL, read-out: Relative inhibition rate (%) In vivo inactivation): 50.4%
- inhibition at 50 mg/kg [15]: 29.4%
- inhibition at 100 µg/mL ([16]; Tobacco mosaic virus, treatment dose 100 μg/mL, read-out: Relative inhibition rate (%) In vitro activity): 21.8%
- inhibition at 500 µg/mL ([16]; Tobacco mosaic virus, treatment dose 500 μg/mL, read-out: Relative inhibition rate (%) In vitro activity): 46.5%
- inhibition at 50 mg/kg ([17]; read-out: Bactericidal activity (%) Bipolaria maydis): 26.3%
- Armyworm Mortality (%) [18]: 60%
- mortality at 600 mg/kg [19]: 55%
- activity against armyworms, cotton bollworms and corn borers (in words) [20]: broad-spectrum activity
- inhibition of growth at 50 mg/kg ([21]; Rhizoctonia solani, 96 h): 33.9%
- inhibition of growth at 50 mg/kg ([22]; Fusarium, 96 h): 28.6%
- inhibition at 100 µg/mL ([23]; Tobacco mosaic virus, treatment dose 100 μg/mL, read-out: Relative inhibition rate (%) In vivo protection): 18.6%
- inhibition at 500 µg/mL ([23]; Tobacco mosaic virus, treatment dose 500 μg/mL, read-out: Relative inhibition rate (%) In vivo protection): 47.9%
- inhibition of growth at 50 mg/kg ([24]; Sclerotinia, 96 h): 68%

SMILES: C[C@@H]1N[C@H](C(=O)NN=Cc2ccc(C(C)(C)C)cc2)Cc2c1[nH]c1ccccc21 [Ic-2, (1S, 3S)—N′-(4-tert-butylbenzylidene)-1-methyl-2,3,4,9-tetrahydropyridino [3,4-b] indol-3-formylhydrazine]
- Bactericidal activity (%) Botrytis cinerea [2]: 86.4%
- Bactericidal activity (%) Fusarium graminearumt [3]: 41.4%
- Bactericidal activity (%) potato late blight [4]: 76.0%
- Relative inhibition rate (%) In vivo therapy ([5]; treatment dose 100 μg/mL): 18.2%
- Relative inhibition rate (%) In vivo therapy ([5]; treatment dose 500 μg/mL): 47%
- Bactericidal activity (%) Colletotrichum orbiculare [6]: 77.8%
- Bactericidal activity (%) Phytophthora capsici [7]: 73.7%
- Bactericidal activity (%) Alternaria solani [8]: 70.0%
- Mosquito larvae Mortality (%) ([9]; concentration 10 mg/kg, 24 h): 20%
- Bactericidal activity (%) Rhizoctonia cereali [10]: 98.0%
- Bactericidal activity (%) Fusarium fujikuroi [11]: 57.1%
- bactericidal activity against fungi (in words) [25]: very good bactericidal activity against various kinds of fungi
- Bactericidal activity (%) Cercospora arachidicola [12]: 82.4%
- Cotton bollworm Mortality (%) [13]: 30%
- Relative inhibition rate (%) In vivo inactivation ([14]; treatment dose 100 μg/mL): 13.3%
- Relative inhibition rate (%) In vivo inactivation ([14]; treatment dose 500 μg/mL): 50.3%
- Bactericidal activity (%) Macrophoma kawatsukai [15]: 97.2%
- Relative inhibition rate (%) In vitro activity ([16]; treatment dose 100 μg/mL): 17.6%
- Relative inhibition rate (%) In vitro activity ([16]; treatment dose 500 μg/mL): 52.4%
- Bactericidal activity (%) Bipolaria maydis [17]: 84.0%
- Armyworm Mortality (%) [18]: 10%
- Bactericidal activity (%) Rhizoctonia solani [21]: 88.2%
- Corn borer Mortality (%) [26]: 5%
- Bactericidal activity (%) Cucumber fusarium wilt [22]: 65.4%
- Relative inhibition rate (%) In vivo protection ([23]; treatment dose 100 μg/mL): 21.7%
- Relative inhibition rate (%) In vivo protection ([23]; treatment dose 500 μg/mL): 53.8%
- Bactericidal activity (%) Sclerotinia scleotiorum [24]: 94.1%

SMILES: C[C@@H]1N[C@H](C(=O)NN=Cc2ccc[nH]2)Cc2c1[nH]c1ccccc21 [Ic-19, (1S, 3S)—N′-(pyrrole-2-methylene)-1-methyl-2,3,4,9-tetrahydropyridino [3,4-b] indol-3-formylhydrazine]
- anti-TMV activity compared with ningnanmycin [1]: equivalent to the activity of commercial variety ningnanmycin
- Bactericidal activity (%) Botrytis cinerea [2]: 22.7%
- Bactericidal activity (%) Fusarium graminearumt [3]: 41.4%
- Bactericidal activity (%) potato late blight [4]: 24.0%
- Relative inhibition rate (%) In vivo therapy ([5]; treatment dose 100 μg/mL): 27.8%
- Relative inhibition rate (%) In vivo therapy ([5]; treatment dose 500 μg/mL): 63.4%
- Bactericidal activity (%) Colletotrichum orbiculare [6]: 29.6%
- Bactericidal activity (%) Phytophthora capsici [7]: 42.1%
- Bactericidal activity (%) Alternaria solani [8]: 15.0%
- activity against culex pipiens larvae (in words) [9]: still show high activity
- Mosquito larvae Mortality (%) ([9]; concentration 5 mg/kg, 24 h): 80%
- Mosquito larvae Mortality (%) ([9]; concentration 10 mg/kg, 24 h): 100%
- Bactericidal activity (%) Rhizoctonia cereali [10]: 74.5%
- Bactericidal activity (%) Fusarium fujikuroi [11]: 14.3%
- Bactericidal activity (%) Cercospora arachidicola [12]: 23.5%
- Cotton bollworm Mortality (%) [13]: 50%
- Relative inhibition rate (%) In vivo inactivation ([14]; treatment dose 100 μg/mL): 20.2%
- Relative inhibition rate (%) In vivo inactivation ([14]; treatment dose 500 μg/mL): 61.3%
- Bactericidal activity (%) Macrophoma kawatsukai [15]: 97.2%
- Relative inhibition rate (%) In vitro activity ([16]; treatment dose 100 μg/mL): 8.8%
- Relative inhibition rate (%) In vitro activity ([16]; treatment dose 500 μg/mL): 49.5%
- Bactericidal activity (%) Bipolaria maydis [17]: 28.0%
- Armyworm Mortality (%) [18]: 70%
- activity against armyworms, cotton bollworms and corn borers (in words) [20]: broad-spectrum activity
- Bactericidal activity (%) Rhizoctonia solani [21]: 32.9%
- Corn borer Mortality (%) [26]: 60%
- Bactericidal activity (%) Cucumber fusarium wilt [22]: 23.1%
- Relative inhibition rate (%) In vivo protection ([23]; treatment dose 100 μg/mL): 30%
- Relative inhibition rate (%) In vivo protection ([23]; treatment dose 500 μg/mL): 54.7%
- Bactericidal activity (%) Sclerotinia scleotiorum [24]: 58.8%
